Reference: US20140256735A1, “METHOD FOR ASSESSING A LIVER OF A PATIENT HAVING A CHRONIC HEPATITIS B VIRUS INFECTION” (PURDUE RESEARCH FOUNDATION, priority 2011, published 2014)

What was measured:
Type in all cases: cell-based
hepatitis B virus = test: Hepatitis B virus replication in HepAD38 cells (genome equivalents in intracellular virions, core antigen immunoblots, viral RNA PCR); details: HepAD38 cells without tetracycline 10 days, 250 nM or 500 nM added on day 8 for 48 h or day 9 for 24 h
Experimental: (§1) FIGS. 7A-D show enhanced expression of the Suz12 repressed genes and proliferation genes in the presence of hepatitis B virus replication. […] HepAD38 cells were grown with (+) or without (−) tetracycline for 10 days, i.e. without (−) or with (+) hepatitis B virus replication, respectively. Hepatitis B virus genome equivalents were quantified by real-time PCR of DNA isolated from purified intracellular virions as described (Wang et al., Hepatology, 53:1137-47, 2011). (Left panel) Effect of DMSO addition (5.0 μl) on hepatitis B virus replication. (Right panel) 250 nM or 500 nM BI 2536 dissolved in DMSO (5.0 μl) added on day 8 for 48 h or day 9 for 24 h, as indicated, prior to cell harvesting. Results represent the average of three independent experiments. Error bars indicate+/−standard 1 error of the mean. […] Relative intensity of indicated protein levels was quantified by ImageJ software vs. actin. […] Quantification is relative to GAPDH used as internal control. […]
(§2) Whole cell extract isolated without (−) or with (+) 1 addition of BI 2536 were immunoblotted for hepatitis B virus core antigen, caspase 3 and cleaved/active caspase. […] Expression of viral RNA was quantified by real-time PCR employing primer pairs described by Zhang et al. (Hepatology 53:1476-1485, 2011). […] Quantification of indicated proteins is by ImageJ software vs. actin. […]

HepAD38 cells = test: Apoptosis in HBV-replicating HepAD38 cells by immunoblot of pro-caspase-3 and caspase-3; details: 250 nM or 500 nM added on day 8 for 48 h or day 9 for 24 h
From the text: Whole cell extract isolated without (−) or with (+) 1 addition of BI 2536 were immunoblotted for hepatitis B virus core antigen, caspase 3 and cleaved/active caspase. […] Expression of viral RNA was quantified by real-time PCR employing primer pairs described by Zhang et al. (Hepatology 53:1476-1485, 2011). Results are the average from two independent WCE preparations. Error bars indicate+/−standard error of the mean. […] Quantification of indicated proteins is by ImageJ software vs. actin. Results are the average from two independent WCE preparations. Error bars indicate+/−standard error of the mean.
(§3) Employing the HepAD38 cell line that supports hepatitis B virus replication following tetracycline removal (Ladner et al., Antimicrobial Agents and Chemotherapy, 41:1715-1720, 1997), viral replication as well as expression of the Suz12-repressed and proliferation cluster genes were quantified 10 days after induction of hepatitis B virus replication (FIG. 7). Also, the effect of Plk1 inhibition on viral replication and expression of the proliferation cluster and Suz12 target genes was investigated. […] Under these conditions of Plk1 inhibition, expression of the proliferation cluster and Suz12-repressed genes on day 10 of hepatitis B virus replication was quantified (FIG. 7C and D). Expression of both gene clusters increased in the presence of hepatitis B virus replication (FIG. 7C and D).

Suz12 and Znf198 = test: Immunoblots of Suz12 and Znf198 protein levels in HepAD38 cell lysates; details: HepAD38 cells, day 10 of HBV replication; 500 nM for 24 h; vs. actin
Experimental: as §1, §2

[1] = system: proliferation gene cluster and Suz12 repressed genes; test: Real-time PCR of proliferation gene cluster and Suz12 repressed genes in HepAD38 cells; details: day 10 of HBV replication, 500 nM for 24 h, relative to GAPDH
Experimental: FIGS. 7A-D show enhanced expression of the Suz12 repressed genes and proliferation genes in the presence of hepatitis B virus replication. […] HepAD38 cells were grown with (+) or without (−) tetracycline for 10 days, i.e. without (−) or with (+) hepatitis B virus replication, respectively. Hepatitis B virus genome equivalents were quantified by real-time PCR of DNA isolated from purified intracellular virions as described (Wang et al., Hepatology, 53:1137-47, 2011). (Left panel) Effect of DMSO addition (5.0 μl) on hepatitis B virus replication. (Right panel) 250 nM or 500 nM BI 2536 dissolved in DMSO (5.0 μl) added on day 8 for 48 h or day 9 for 24 h, as indicated, prior to cell harvesting. Results represent the average of three independent experiments. Error bars indicate+/−standard 1 error of the mean. […] Relative intensity of indicated protein levels was quantified by ImageJ software vs. actin. A representative experiment is shown from three independent experiments. […] Quantification is relative to GAPDH used as internal control. Results are from three independent RNA isolations. PCR assays were performed in triplicates. Error bars indicate+/−standard error of the mean.
cDNA was synthesized from 2.0 μg total RNA using iSCRIPT cDNA synthesis kit (Bio-Rad). Real-time PCR reactions were performed in triplicates and normalized to GAPDH.
as §3, with “Expression of both gene clusters increased in the presence of hepatitis B virus replication (FIG. 7C and D).” left out

CC[C@@H]1C(=O)N(C)c2cnc(Nc3ccc(C(=O)NC4CCN(C)CC4)cc3OC)nc2N1C1CCCC1 [BI 2536]
hepatitis B virus replication (genome equivalents in purified intracellular virions, core antigen immunoblots, viral RNA PCR) (hepatitis B virus): suppressed hepatitis B virus replication | hepatitis B virus replication (genome equivalents in purified intracellular virions, core antigen immunoblots, viral RNA PCR) (hepatitis B virus; listed as BI2536): significantly reduced | apoptosis (levels of pro-caspase-3 and caspase-3) (HepAD38 cells): did not induce apoptosis | protein level of Suz12 (Suz12 and Znf198): increased | protein level of Znf198 (Suz12 and Znf198): increased | expression of the Suz12 repressed genes DKK2, EpCAM and IGFII [1]: significantly decreased | expression of the proliferation genes [1]: significantly reduced | expression of the Suz12 repressed genes DKK2, EpCAM and IGFII ([1]; listed as BI2536): significantly reduced
